Test results from ChEMBL document CHEMBL1141989, “Amino acid conjugates as kappa opioid receptor agonists” (Bioorg Med Chem Lett, 2005).
Where “and” joins values, the source holds several entries; their conditions need not be identical. Identical values can stand only once.

What was measured:
[1] = target: T1, Kappa-type opioid receptor (Homo sapiens, UniProt P41145); assay: In vitro effective concentration towards human kappa opioid receptor was determined using [35S]-GTP-gamma S as radioligand; Not determined; type: functional
[2] = target: T1, Kappa-type opioid receptor; assay: In vitro binding affinity for human kappa opioid receptor was determined by using [3H]diprenorphine as radioligand
[3] = target: Opioid receptors; mu & kappa (Homo sapiens) (UniProt P41145+P35372); assay: Selectivity of binding affinity of human kappa opioid receptor over human mu opioid receptor; type: protein assay
Opioid receptors; mu & kappa (Homo sapiens), sequence (P35372 whole entry, looked up): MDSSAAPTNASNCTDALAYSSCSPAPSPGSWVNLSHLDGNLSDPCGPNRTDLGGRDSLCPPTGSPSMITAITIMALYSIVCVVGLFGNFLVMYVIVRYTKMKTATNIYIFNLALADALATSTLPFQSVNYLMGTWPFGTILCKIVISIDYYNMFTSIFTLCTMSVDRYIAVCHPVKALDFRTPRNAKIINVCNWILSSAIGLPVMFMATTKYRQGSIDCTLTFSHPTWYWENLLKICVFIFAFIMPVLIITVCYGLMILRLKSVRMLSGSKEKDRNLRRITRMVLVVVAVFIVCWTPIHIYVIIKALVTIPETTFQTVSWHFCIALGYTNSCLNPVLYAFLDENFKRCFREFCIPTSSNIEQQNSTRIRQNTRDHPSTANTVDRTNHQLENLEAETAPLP
Opioid receptors; mu & kappa (Homo sapiens), sequence (P41145 whole entry, looked up): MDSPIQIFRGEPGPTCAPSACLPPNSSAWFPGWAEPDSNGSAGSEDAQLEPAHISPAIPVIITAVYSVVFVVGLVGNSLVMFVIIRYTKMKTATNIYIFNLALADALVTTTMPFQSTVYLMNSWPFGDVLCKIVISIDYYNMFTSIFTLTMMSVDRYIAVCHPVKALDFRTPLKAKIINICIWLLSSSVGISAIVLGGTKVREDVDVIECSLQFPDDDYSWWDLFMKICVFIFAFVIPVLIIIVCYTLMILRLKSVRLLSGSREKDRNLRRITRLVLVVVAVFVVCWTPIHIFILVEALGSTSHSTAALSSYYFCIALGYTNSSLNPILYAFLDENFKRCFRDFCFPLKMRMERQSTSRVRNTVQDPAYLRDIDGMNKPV

T1 sequence (P41145 whole entry): as the sequence (P41145 whole entry, looked up) above

| Compound | EC50 [1] [nM] | Ki [2] [nM] | Selectivity [3] |
| --- | --- | --- | --- |
| CN(C(=O)CNC(=O)c1ccc(Cl)c(Cl)c1)[C@H](CN1CC[C@@H](O)C1)c1ccccc1 | 0.76 | 0.83 |  |
| COc1ccccc1C(=O)NCC(=O)N(C)[C@H](CN1CC[C@@H](O)C1)c1ccccc1 | 1.98 | 2 |  |
| CN(C(=O)[C@H](Cc1ccccc1)NC(=O)OCc1ccccc1)[C@H](CN1CCCC1)c1ccccc1 |  | 150 | 13 and 5 |
| CN(C(=O)CNC(=O)c1ccccc1)[C@H](CN1CCCC1)c1ccccc1 | 3.85 | 6.7 | 61 and 50 |
| CN(C(=O)[C@H](NC(=O)OCc1ccccc1)c1ccccc1)[C@H](CN1CCCC1)c1ccccc1 |  | 856 |  |
| CN(C(=O)CNC(=O)c1ccc2c(c1)no[n+]2[O-])[C@H](CN1CCCC1)c1ccccc1 | 4.37 | 4.6 |  |
| CN(C(=O)[C@@H](NC(=O)c1ccccc1)c1ccccc1)[C@H](CN1CCCC1)c1ccccc1 |  | 99 |  |
| COC(=O)N[C@H](C(=O)N(C)[C@H](CN1CCCC1)c1ccccc1)c1ccccc1 |  | 178 | > 100 |
| CN(C(=O)C(NC=O)c1ccccc1)[C@H](CN1CCCC1)c1ccccc1 (mixture of isomers) |  | 258 | 146 and > 100 |
| CN(C(=O)CNC(=O)OCc1ccccc1)[C@H](CN1CCCC1)c1ccccc1 |  | 84 |  |
| CN(C(=O)CNC(=O)Cc1ccccc1)[C@H](CN1CCCC1)c1ccccc1 |  | 16.3 | > 100 and 49 |
| CN(CC(=O)N(C)[C@H](CN1CC[C@@H](O)C1)c1ccccc1)C(=O)c1ccc(Cl)c(Cl)c1 | 41.4 | 20 |  |
| CN(C(=O)CNC(=O)c1ccc(Cl)c(Cl)c1)[C@H](CN1CCCC1)c1ccccc1 | 2.25 | 3.6 | 34 and 24 |
| COc1ccc(C(=O)NCC(=O)N(C)[C@H](CN2CC[C@@H](O)C2)c2ccccc2)cc1 |  | 48 | 39 and > 100 |
| CN(C(=O)[C@@H](NC(=O)OCc1ccccc1)c1ccccc1)[C@H](CN1CCCC1)c1ccccc1 |  | 138 | 22 and 27 |
